“And” between values parts separate entries of the source, which are not always exact repeats. Identical values can stand only once.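 Interpolation was linear, between the two tested concentrations surrounding the appropriate level; five concentrations were tested over 48 hours in 96-well plates. GI50 is the concentration that inhibits growth by half.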 The source made the active and inactive calls. No stated cut-off is given here; in the data, active = GI50 up to about 1.1 µM and inactive = higher.
Legend:
Assay in all cases: growth of human tumour cells (NCI), 48 h
[1] = test system: MDA-MB-435
[2] = test system: CCRF-CEM
[3] = test system: M14
[4] = test system: NCI/ADR-RES
[5] = test system: MOLT-4
[6] = test system: NCI-H226
[7] = test system: KM12
[8] = test system: HOP-62
[9] = test system: T47D
[10] = test system: K562
[11] = test system: OVCAR-8
[12] = test system: A549
[13] = test system: SF-539
[14] = test system: U-251
[15] = test system: MCF7
[16] = test system: NCI-H460
[17] = test system: BT-549
[18] = test system: COLO 205
[19] = test system: TK-10
[20] = test system: Malme-3M
[21] = test system: SW-620
[22] = test system: SK-MEL-28
[23] = test system: ACHN
[24] = test system: OVCAR-3
[25] = test system: HOP-92
[26] = test system: DU-145
[27] = test system: UACC-257
[28] = test system: HCT-15
[29] = test system: PC-3
[30] = test system: SF-268
[31] = test system: SF-295
[32] = test system: OVCAR-5
[33] = test system: SNB-19
[34] = test system: NCI-H23
[35] = test system: EKVX
[36] = test system: UO-31
[37] = test system: HL-60
[38] = test system: SN12C
[39] = test system: HCT-116
[40] = test system: RPMI-8226
[41] = test system: SR
[42] = test system: 786-0
[43] = test system: HT-29
[44] = test system: RXF 393
[45] = test system: MDA-N
[46] = test system: HCC 2998
[47] = test system: SNB-75
[48] = test system: MDA-MB-231
[49] = test system: OVCAR-4
[50] = test system: SK-OV-3
[51] = test system: SK-MEL-5
[52] = test system: IGROV-1
[53] = test system: LOX IMVI
[54] = test system: A498
[55] = test system: NCI-H522
[56] = test system: Hs-578T
[57] = test system: UACC-62
[58] = test system: CAKI-1
[59] = test system: SK-MEL-2

Cc1ccc(S(=NS(=O)(=O)c2ccc(C)cc2)c2ccc(C)cc2)cc1
GI50 [1]: 60.3 µM (inactive) | GI50 [2]: 57 µM (inactive) | GI50 [3]: > 100 µM (inactive) | GI50 [4]: 38.7 µM (inactive) | GI50 [5]: > 10 µM (inactive) | GI50 [6]: > 100 µM (inactive) | GI50 [7]: 48.5 µM (inactive) | GI50 [8]: > 100 µM (inactive) | GI50 [9]: 56 µM (inactive) | GI50 [10]: 36.1 µM (inactive) | GI50 [11]: 71.6 µM (inactive) | GI50 [12]: 62.5 µM (inactive) | GI50 [13]: > 100 µM (inactive) | GI50 [14]: 57.5 µM (inactive) | GI50 [15]: 68.2 µM (inactive) | GI50 [16]: > 100 µM (inactive) | GI50 [17]: > 100 µM (inactive) | GI50 [18]: 54.7 µM (inactive) | GI50 [19]: > 100 µM (inactive) | GI50 [20]: > 100 µM (inactive) | GI50 [21]: > 100 µM (inactive) | GI50 [22]: > 100 µM (inactive) | GI50 [23]: > 100 µM (inactive) | GI50 [24]: 76 µM (inactive) | GI50 [25]: > 100 µM (inactive) | GI50 [26]: > 100 µM (inactive) | GI50 [27]: > 100 µM (inactive) | GI50 [28]: 57 µM | GI50 [29]: 64 µM (inactive) | GI50 [30]: 76.2 µM (inactive) | GI50 [31]: 75.7 µM (inactive) | GI50 [32]: > 100 µM (inactive) | GI50 [33]: > 100 µM (inactive) | GI50 [34]: 51.6 µM (inactive) | GI50 [35]: 86.5 µM (inactive) | GI50 [36]: 63.7 µM (inactive) | GI50 [37]: 34.7 µM (inactive) | GI50 [38]: > 100 µM (inactive) | GI50 [39]: 56.9 µM (inactive) | GI50 [40]: > 100 µM (inactive) | GI50 [41]: 36.9 µM (inactive) | GI50 [42]: > 100 µM (inactive) | GI50 [43]: > 100 µM (inactive) | GI50 [44]: 81.8 µM (inactive) | GI50 [45]: 77.1 µM (inactive)

CCCCCCCCCCCCCCCCCCOCC(CCP(=O)(CP(=O)(O)O)Oc1ccccc1)OCCCCCCCCCCCCCCCCCC (configuration not stated)
GI50 [1]: > 100 µM (inactive) | GI50 [2]: > 100 µM (inactive) | GI50 [46]: > 100 µM (inactive) | GI50 [3]: > 100 µM (inactive) | GI50 [4]: > 100 µM (inactive) | GI50 [5]: > 100 µM (inactive) | GI50 [6]: > 100 µM (inactive) | GI50 [7]: > 100 µM (inactive) | GI50 [47]: > 100 µM (inactive) | GI50 [8]: > 100 µM (inactive) | GI50 [9]: > 100 µM (inactive) | GI50 [10]: > 100 µM (inactive) | GI50 [11]: > 100 µM (inactive) | GI50 [48]: > 100 µM (inactive) | GI50 [12]: > 100 µM (inactive) | GI50 [13]: > 100 µM (inactive) | GI50 [49]: > 100 µM (inactive) | GI50 [50]: > 100 µM (inactive) | GI50 [51]: > 100 µM (inactive) | GI50 [14]: > 100 µM (inactive) | GI50 [15]: > 100 µM (inactive) | GI50 [16]: > 100 µM (inactive) | GI50 [18]: > 100 µM (inactive) | GI50 [52]: > 100 µM (inactive) | GI50 [19]: > 100 µM (inactive) | GI50 [53]: > 100 µM (inactive) | GI50 [20]: > 100 µM (inactive) | GI50 [21]: > 100 µM (inactive) | GI50 [54]: > 100 µM (inactive) | GI50 [22]: > 100 µM (inactive) | GI50 [23]: > 100 µM (inactive) | GI50 [55]: > 100 µM (inactive) | GI50 [24]: > 100 µM (inactive) | GI50 [25]: > 100 µM (inactive) | GI50 [26]: > 100 µM (inactive) | GI50 [27]: > 100 µM (inactive) | GI50 [28]: > 100 µM | GI50 [29]: > 100 µM (inactive) | GI50 [30]: > 100 µM (inactive) | GI50 [31]: > 100 µM (inactive) | GI50 [56]: > 100 µM (inactive) | GI50 [32]: > 100 µM (inactive) | GI50 [33]: > 100 µM (inactive) | GI50 [34]: > 100 µM (inactive) | GI50 [35]: > 100 µM (inactive) | GI50 [37]: > 100 µM (inactive) | GI50 [38]: > 100 µM (inactive) | GI50 [39]: > 100 µM (inactive) | GI50 [57]: > 100 µM (inactive) | GI50 [40]: > 100 µM (inactive) | GI50 [41]: > 100 µM (inactive) | GI50 [58]: > 100 µM (inactive) | GI50 [42]: > 100 µM (inactive) | GI50 [43]: > 100 µM (inactive) | GI50 [44]: > 100 µM (inactive) | GI50 [45]: > 100 µM (inactive)

CC(C)=CCC/C(C)=C\CCC1(C)OC(=O)C2CC21 (configuration not stated)
GI50 [46]: 21.1 µM (inactive) and 36.1 µM (inactive) | GI50 [4]: 42.4 µM (inactive) and 33.3 µM (inactive) | GI50 [5]: 18.1 µM (inactive) and 22.7 µM (inactive) | GI50 [47]: 55.7 µM (inactive) | GI50 [8]: > 100 µM (inactive) and 53.5 µM (inactive) | GI50 [9]: > 100 µM (inactive) and 63.4 µM (inactive) | GI50 [10]: 22.4 µM (inactive) and 17.2 µM (inactive) | GI50 [48]: 50.5 µM (inactive) | GI50 [51]: 43.6 µM (inactive) and 41.1 µM (inactive) | GI50 [17]: 31.8 µM (inactive) and 34 µM (inactive) | GI50 [18]: 49.1 µM (inactive) and 59.8 µM (inactive) | GI50 [19]: 56.6 µM (inactive) | GI50 [53]: 15 µM (inactive) and 27.7 µM (inactive) | GI50 [20]: 80.2 µM (inactive) | GI50 [54]: 98.9 µM (inactive) | GI50 [24]: 51.5 µM (inactive) and 27.5 µM (inactive) | GI50 [26]: 92.7 µM (inactive) | GI50 [59]: 45.6 µM (inactive) | GI50 [27]: 73.6 µM (inactive) and 47.3 µM (inactive) | GI50 [29]: 25.9 µM (inactive) and 35.4 µM (inactive) | GI50 [30]: > 100 µM (inactive) | GI50 [32]: > 100 µM (inactive) | GI50 [33]: > 100 µM (inactive) and 71.1 µM (inactive) | GI50 [34]: 28.7 µM (inactive) and 40.4 µM (inactive) | GI50 [36]: 44.4 µM (inactive) and 37.2 µM (inactive) | GI50 [37]: 18.5 µM (inactive) and 12.3 µM (inactive) | GI50 [40]: 28.3 µM (inactive) and 19.7 µM (inactive) | GI50 [58]: 23.8 µM (inactive) and 32.3 µM (inactive) | GI50 [44]: 40.6 µM (inactive)

CCOC(=O)C(=CNc1ccc(N(C2=NCC(C)S2)c2ccc(F)c(Cl)c2)cc1)C(=O)OCC (configuration not stated)
GI50 [1]: 24.1 µM (inactive) | GI50 [2]: 7.93 µM (inactive) | GI50 [46]: 15.2 µM (inactive) | GI50 [3]: 18.9 µM (inactive) | GI50 [4]: 17.1 µM (inactive) | GI50 [5]: 19.1 µM (inactive) | GI50 [6]: 18.1 µM (inactive) | GI50 [7]: 18.7 µM (inactive) | GI50 [47]: 20.4 µM (inactive) | GI50 [8]: 21.1 µM (inactive) | GI50 [9]: 13.9 µM (inactive) | GI50 [10]: 44.1 µM (inactive) | GI50 [11]: 18.8 µM (inactive) | GI50 [48]: 14.5 µM (inactive) | GI50 [12]: 27 µM (inactive) | GI50 [13]: 25.6 µM (inactive) | GI50 [49]: 24.8 µM (inactive) | GI50 [50]: 21.9 µM (inactive) | GI50 [51]: 18.7 µM (inactive) | GI50 [14]: 20.8 µM (inactive) | GI50 [15]: 12.8 µM (inactive) | GI50 [16]: 23.6 µM (inactive) | GI50 [18]: 17.8 µM (inactive) | GI50 [52]: 20.5 µM (inactive) | GI50 [19]: 21.8 µM (inactive) | GI50 [53]: 16.8 µM (inactive) | GI50 [20]: 20.8 µM (inactive) | GI50 [21]: 20.8 µM (inactive) | GI50 [54]: 21.9 µM (inactive) | GI50 [22]: 18.7 µM (inactive) | GI50 [23]: 18.5 µM (inactive) | GI50 [55]: 15.7 µM (inactive) | GI50 [24]: 20.9 µM (inactive) | GI50 [25]: 18.1 µM (inactive) | GI50 [26]: 17.6 µM (inactive) | GI50 [59]: 20.4 µM (inactive) | GI50 [27]: 17.1 µM (inactive) | GI50 [28]: 18.8 µM | GI50 [29]: 22.4 µM (inactive) | GI50 [30]: 22.9 µM (inactive) | GI50 [31]: 25.4 µM (inactive) | GI50 [56]: 22.8 µM (inactive) | GI50 [32]: 19.6 µM (inactive) | GI50 [33]: 21.8 µM (inactive) | GI50 [34]: 17.5 µM (inactive) | GI50 [35]: 19.5 µM (inactive) | GI50 [36]: 18.1 µM (inactive) | GI50 [37]: 24.7 µM (inactive) | GI50 [38]: 17.9 µM (inactive) | GI50 [39]: 16 µM (inactive) | GI50 [40]: 21.3 µM (inactive) | GI50 [41]: 21.8 µM (inactive) | GI50 [58]: 39.2 µM (inactive) | GI50 [42]: 16.2 µM (inactive) | GI50 [43]: 18.1 µM (inactive) | GI50 [44]: 6.05 µM (inactive) | GI50 [45]: 21.2 µM (inactive)

Reference: ChEMBL document CHEMBL1201862, “PubChem BioAssay data set” (2004)
